According to ChEMBL document CHEMBL4507276 (2021):

Assays:
[1] = molecular target: Sodium-dependent dopamine transporter (Homo sapiens, UniProt Q01959); experiment: GPCRScan assay: inhibition of DAT; set-up: radioligand conc. used [nm] 3.6 – 16.0, parental cells stable HEK
[2] = molecular target: D(3) dopamine receptor (Homo sapiens) (UniProt P35462); experiment: D3/H Cerep selectivity data (BI); conditions: Compound concentration 20.0 uM
[3] = molecular target: RAC-alpha serine/threonine-protein kinase (Homo sapiens) (UniProt P31749); experiment: AKT1 Invitrogen selectivity data (BI); conditions: Compound concentration 3.0 uM
[4] = molecular target: Phosphatidylinositol 3-kinase regulatory subunit gamma (Bos taurus) (UniProt O46404); experiment: PROTKINP55 Cerep selectivity data (BI); conditions: Compound concentration 20.0 uM
[5] = molecular target: Mitogen-activated protein kinase 14 (Homo sapiens) (UniProt Q16539); experiment: P38ALPHA_CE Cerep selectivity data (BI); conditions: Compound concentration 20.0 uM
[6] = molecular target: Endothelin receptor type B (Homo sapiens) (UniProt P24530); experiment: ETB/HUM Eurofins-Panlabs selectivity data (BI); conditions: Compound concentration 10.0 uM
[7] = molecular target: Receptor-type tyrosine-protein kinase FLT3 (Homo sapiens) (UniProt P36888); experiment: FLT3 Invitrogen selectivity data (BI); conditions: Compound concentration 3.0 uM
[8] = molecular target: Dual specificity tyrosine-phosphorylation-regulated kinase 4 (Homo sapiens) (UniProt Q9NR20); experiment: DYRK4 Invitrogen selectivity data (BI); conditions: Compound concentration 3.0 uM
[9] = molecular target: L-type Ca2+ channel (dihydropyridine site), Cav1.2 alpha-1C (Rattus norvegicus, UniProt P22002); experiment: CA+/DHPSI/R Cerep selectivity data (BI); set-up: mode of action inhibitor; conditions: rat brain, probe [3H](+)PN200-110, compound concentration 20 uM, read-out: % Ctrl
[10] = molecular target: Mitogen-activated protein kinase kinase kinase 9 (Homo sapiens) (UniProt P80192); experiment: MAP3K9 Invitrogen selectivity data (BI); conditions: Compound concentration 3.0 uM
Caspase-3 (Homo sapiens) = Caspase-3 (Homo sapiens) (UniProt P42574); experiment: CASPASE-3 Cerep selectivity data (BI); conditions: Compound concentration 20.0 uM
[11] = molecular target: STE20-like serine/threonine-protein kinase (Homo sapiens) (UniProt Q9H2G2); experiment: SLK Invitrogen selectivity data (BI); conditions: Compound concentration 3.0 uM
[12] = molecular target: T1, Ephrin type-A receptor 8 (Homo sapiens) (UniProt P29322); experiment: EPHA8 Invitrogen selectivity data (BI); conditions: Compound concentration 3.0 uM
T1 sequence (whole entry): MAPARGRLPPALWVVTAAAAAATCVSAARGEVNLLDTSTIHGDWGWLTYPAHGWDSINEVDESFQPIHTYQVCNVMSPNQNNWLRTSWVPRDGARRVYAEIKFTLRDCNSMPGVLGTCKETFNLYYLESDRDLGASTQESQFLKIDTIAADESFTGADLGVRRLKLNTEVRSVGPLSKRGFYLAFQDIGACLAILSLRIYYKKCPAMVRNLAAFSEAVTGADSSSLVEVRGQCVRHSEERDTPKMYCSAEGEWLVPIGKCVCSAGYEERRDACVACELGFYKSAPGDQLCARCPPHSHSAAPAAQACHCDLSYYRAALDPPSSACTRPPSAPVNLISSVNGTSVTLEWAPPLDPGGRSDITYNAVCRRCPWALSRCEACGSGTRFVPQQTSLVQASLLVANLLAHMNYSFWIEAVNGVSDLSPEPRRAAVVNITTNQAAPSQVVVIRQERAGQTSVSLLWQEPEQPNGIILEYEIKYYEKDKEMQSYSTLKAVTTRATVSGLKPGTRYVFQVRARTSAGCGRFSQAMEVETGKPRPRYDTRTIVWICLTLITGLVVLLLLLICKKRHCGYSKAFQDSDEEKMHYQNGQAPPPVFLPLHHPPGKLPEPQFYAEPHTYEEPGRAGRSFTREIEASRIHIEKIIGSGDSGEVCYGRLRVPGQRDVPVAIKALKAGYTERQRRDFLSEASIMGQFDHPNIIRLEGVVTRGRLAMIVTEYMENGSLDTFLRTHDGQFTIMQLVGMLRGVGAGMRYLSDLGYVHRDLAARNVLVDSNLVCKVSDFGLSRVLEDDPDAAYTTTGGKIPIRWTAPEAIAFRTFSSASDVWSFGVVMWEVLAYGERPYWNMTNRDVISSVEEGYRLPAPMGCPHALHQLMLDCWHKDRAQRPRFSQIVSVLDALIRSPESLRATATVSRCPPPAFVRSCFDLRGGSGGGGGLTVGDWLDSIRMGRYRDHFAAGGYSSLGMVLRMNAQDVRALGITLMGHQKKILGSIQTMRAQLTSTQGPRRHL

[13] = molecular target: Insulin-like growth factor 1 receptor (Homo sapiens) (UniProt P08069); experiment: IGF1R Invitrogen selectivity data (BI); conditions: Compound concentration 3.0 uM
[14] = molecular target: Serine/threonine-protein kinase PLK2 (Homo sapiens) (UniProt Q9NYY3); experiment: PLK2 Invitrogen selectivity data (BI); conditions: Compound concentration 3.0 uM
[15] = molecular target: Mitogen-activated protein kinase 8 (Homo sapiens) (UniProt P45983); experiment: MAPK8 Invitrogen selectivity data (BI); conditions: Compound concentration 3.0 uM
[16] = molecular target: T2, Aurora kinase C (Homo sapiens) (UniProt Q9UQB9); experiment: AURKC Invitrogen selectivity data (BI); conditions: Compound concentration 3.0 uM
T2 sequence (whole entry): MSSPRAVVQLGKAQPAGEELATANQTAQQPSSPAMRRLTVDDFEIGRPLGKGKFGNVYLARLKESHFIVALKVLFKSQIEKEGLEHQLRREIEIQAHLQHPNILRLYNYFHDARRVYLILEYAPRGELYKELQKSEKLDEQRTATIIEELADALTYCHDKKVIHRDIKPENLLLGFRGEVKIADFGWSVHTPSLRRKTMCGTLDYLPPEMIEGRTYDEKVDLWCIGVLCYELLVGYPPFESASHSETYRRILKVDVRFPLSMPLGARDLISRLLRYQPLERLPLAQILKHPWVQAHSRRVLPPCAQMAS

[17] = molecular target: Platelet-derived growth factor receptor alpha (Homo sapiens) (UniProt P16234); experiment: PDGFRA Invitrogen selectivity data (BI); conditions: Compound concentration 3.0 uM
[18] = molecular target: T3, Calcium/calmodulin-dependent protein kinase type IV (Homo sapiens) (UniProt Q16566); experiment: CAMK4 Invitrogen selectivity data (BI); conditions: Compound concentration 3.0 uM
T3 sequence (whole entry): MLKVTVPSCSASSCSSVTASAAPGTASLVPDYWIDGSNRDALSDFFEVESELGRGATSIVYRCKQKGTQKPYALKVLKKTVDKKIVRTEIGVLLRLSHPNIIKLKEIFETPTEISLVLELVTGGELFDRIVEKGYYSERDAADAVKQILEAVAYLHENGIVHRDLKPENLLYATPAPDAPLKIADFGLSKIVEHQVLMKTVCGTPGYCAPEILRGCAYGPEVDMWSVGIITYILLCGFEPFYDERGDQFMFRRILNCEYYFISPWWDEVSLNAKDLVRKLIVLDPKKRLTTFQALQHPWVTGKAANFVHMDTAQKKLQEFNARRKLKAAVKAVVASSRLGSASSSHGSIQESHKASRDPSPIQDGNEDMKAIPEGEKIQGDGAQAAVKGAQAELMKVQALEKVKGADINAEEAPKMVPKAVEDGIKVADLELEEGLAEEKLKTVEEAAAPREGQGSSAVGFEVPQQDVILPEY

[19] = molecular target: Ephrin type-A receptor 2 (Homo sapiens) (UniProt P29317); experiment: EPHA2 Invitrogen selectivity data (BI); conditions: Compound concentration 3.0 uM
[20] = molecular target: Endothelin-1 receptor (Homo sapiens) (UniProt P25101); experiment: ETA/HU Eurofins-Panlabs selectivity data (BI); conditions: Compound concentration 10.0 uM

Chain of Sodium-dependent dopamine transporter (Q01959 whole entry): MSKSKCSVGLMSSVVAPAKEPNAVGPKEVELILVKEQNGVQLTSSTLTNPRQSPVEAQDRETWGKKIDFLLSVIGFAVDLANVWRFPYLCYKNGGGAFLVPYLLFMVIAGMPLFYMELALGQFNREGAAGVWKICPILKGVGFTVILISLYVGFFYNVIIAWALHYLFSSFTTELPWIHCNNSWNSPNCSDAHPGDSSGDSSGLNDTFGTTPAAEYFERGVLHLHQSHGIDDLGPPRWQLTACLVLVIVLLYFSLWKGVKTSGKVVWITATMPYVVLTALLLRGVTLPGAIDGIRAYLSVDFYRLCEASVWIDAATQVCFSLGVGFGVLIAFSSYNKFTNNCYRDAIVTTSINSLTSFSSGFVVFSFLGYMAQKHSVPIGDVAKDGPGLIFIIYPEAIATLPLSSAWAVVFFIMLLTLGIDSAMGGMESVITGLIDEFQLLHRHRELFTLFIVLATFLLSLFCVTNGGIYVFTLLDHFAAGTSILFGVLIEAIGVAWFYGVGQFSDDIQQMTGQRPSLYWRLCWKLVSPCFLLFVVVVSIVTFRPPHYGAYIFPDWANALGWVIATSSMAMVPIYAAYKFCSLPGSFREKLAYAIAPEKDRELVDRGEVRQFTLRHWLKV
Chain of Mitogen-activated protein kinase 8 (Homo sapiens) (P45983 whole entry): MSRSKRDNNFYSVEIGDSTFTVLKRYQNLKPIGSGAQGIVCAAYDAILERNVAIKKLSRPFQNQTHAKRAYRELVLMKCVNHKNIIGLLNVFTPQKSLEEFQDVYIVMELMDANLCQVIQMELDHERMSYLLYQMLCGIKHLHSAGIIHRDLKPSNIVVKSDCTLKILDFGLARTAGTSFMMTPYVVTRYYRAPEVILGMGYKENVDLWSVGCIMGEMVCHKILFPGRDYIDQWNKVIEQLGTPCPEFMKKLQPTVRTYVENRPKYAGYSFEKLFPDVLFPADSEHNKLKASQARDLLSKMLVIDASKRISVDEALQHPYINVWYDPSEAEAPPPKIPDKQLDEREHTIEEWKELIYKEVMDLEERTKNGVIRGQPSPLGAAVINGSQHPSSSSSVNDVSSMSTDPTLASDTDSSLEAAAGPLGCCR
Chain of L-type Ca2+ channel (dihydropyridine site), Cav1.2 alpha-1C (P22002 whole entry): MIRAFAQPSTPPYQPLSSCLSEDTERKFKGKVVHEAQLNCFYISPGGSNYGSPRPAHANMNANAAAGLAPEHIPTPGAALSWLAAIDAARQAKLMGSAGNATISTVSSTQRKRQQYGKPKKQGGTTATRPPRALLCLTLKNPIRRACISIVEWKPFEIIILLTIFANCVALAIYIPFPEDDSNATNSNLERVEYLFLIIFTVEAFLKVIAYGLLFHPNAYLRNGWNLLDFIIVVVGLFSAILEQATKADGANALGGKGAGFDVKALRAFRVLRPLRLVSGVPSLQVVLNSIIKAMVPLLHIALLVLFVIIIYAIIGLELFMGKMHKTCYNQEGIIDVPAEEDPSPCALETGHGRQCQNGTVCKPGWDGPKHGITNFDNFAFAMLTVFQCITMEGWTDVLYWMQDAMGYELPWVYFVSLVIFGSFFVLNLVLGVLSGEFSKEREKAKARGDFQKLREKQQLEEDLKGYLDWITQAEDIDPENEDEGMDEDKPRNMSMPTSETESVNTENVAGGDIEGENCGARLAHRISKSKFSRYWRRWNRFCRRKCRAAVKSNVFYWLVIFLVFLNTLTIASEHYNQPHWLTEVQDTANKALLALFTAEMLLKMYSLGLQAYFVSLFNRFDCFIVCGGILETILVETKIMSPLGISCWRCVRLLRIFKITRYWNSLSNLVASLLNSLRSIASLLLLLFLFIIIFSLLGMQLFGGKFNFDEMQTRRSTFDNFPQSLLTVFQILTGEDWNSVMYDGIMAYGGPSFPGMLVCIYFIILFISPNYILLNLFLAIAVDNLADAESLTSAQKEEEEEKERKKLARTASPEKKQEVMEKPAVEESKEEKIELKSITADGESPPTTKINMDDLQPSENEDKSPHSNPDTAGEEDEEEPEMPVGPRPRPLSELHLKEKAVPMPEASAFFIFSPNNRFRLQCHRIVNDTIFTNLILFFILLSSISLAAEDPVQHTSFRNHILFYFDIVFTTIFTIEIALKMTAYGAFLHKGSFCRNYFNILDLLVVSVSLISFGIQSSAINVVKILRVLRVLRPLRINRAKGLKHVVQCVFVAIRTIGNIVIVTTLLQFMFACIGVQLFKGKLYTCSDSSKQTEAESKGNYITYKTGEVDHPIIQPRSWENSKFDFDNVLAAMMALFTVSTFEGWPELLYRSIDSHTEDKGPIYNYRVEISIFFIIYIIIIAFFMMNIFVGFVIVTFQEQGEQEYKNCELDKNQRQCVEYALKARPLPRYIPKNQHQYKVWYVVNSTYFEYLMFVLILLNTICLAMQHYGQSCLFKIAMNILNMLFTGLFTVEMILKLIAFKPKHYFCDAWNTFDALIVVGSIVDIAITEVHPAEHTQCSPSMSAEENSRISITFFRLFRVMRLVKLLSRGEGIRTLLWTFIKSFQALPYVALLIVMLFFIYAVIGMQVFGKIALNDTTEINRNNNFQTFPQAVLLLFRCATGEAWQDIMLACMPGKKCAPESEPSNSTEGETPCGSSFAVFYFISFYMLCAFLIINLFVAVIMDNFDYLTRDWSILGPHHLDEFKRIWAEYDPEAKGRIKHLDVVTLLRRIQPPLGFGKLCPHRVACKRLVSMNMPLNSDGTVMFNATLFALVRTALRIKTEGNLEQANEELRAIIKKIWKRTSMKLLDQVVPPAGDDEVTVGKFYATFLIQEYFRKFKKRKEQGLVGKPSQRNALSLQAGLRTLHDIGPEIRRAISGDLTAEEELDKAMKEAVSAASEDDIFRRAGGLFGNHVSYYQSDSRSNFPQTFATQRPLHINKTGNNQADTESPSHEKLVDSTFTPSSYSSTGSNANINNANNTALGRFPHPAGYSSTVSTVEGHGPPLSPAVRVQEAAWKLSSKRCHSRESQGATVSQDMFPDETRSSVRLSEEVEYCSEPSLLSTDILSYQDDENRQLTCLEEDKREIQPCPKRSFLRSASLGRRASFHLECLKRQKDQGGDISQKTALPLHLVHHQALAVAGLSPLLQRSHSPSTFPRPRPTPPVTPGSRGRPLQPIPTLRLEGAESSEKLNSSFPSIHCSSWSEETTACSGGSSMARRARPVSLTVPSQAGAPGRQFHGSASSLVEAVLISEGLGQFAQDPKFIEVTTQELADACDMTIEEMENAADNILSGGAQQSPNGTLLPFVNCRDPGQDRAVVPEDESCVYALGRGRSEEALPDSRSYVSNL
Chain of STE20-like serine/threonine-protein kinase (Homo sapiens) (Q9H2G2 whole entry, looked up): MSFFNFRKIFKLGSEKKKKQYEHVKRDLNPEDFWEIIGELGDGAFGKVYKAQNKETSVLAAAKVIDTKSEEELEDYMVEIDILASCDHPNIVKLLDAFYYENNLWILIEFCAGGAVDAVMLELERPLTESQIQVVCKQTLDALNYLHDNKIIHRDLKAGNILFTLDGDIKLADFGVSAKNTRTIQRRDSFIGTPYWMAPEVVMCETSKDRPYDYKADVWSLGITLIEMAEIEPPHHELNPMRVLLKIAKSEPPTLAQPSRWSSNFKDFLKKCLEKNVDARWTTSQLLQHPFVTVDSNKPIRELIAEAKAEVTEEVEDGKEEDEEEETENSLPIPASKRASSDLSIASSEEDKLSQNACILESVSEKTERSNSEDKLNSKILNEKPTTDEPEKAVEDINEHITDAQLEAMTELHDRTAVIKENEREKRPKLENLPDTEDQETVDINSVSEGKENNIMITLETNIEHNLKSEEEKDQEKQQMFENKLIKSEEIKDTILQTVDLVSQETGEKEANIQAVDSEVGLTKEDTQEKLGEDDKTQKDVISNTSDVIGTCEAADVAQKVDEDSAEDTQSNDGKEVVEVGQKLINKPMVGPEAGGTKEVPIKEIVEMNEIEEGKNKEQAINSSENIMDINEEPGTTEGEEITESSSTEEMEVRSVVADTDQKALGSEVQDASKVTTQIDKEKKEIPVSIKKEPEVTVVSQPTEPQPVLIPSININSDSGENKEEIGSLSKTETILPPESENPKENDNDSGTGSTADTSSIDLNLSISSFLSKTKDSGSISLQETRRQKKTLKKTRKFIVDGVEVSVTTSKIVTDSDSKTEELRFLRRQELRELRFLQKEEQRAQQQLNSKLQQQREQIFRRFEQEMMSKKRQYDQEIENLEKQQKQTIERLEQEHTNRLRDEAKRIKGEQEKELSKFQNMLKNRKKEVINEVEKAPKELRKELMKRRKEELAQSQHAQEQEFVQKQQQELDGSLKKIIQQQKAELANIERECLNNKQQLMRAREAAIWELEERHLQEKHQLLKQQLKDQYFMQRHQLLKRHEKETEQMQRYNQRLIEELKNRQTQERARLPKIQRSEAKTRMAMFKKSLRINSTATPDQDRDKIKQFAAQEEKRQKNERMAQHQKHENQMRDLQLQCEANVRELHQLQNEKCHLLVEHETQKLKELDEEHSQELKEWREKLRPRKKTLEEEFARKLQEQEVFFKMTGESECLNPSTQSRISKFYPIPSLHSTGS

CN(C)C(=O)Cn1cc(-c2nc(C3(c4ccc(-c5cnc(N)nc5)cc4)CC3)no2)cn1 [BI 0153]
Ki ([1]; read-out: Ki): 855 nM | Ki ([1]; read-out: pKi (converted)): 794 nM

CN(C)C(=O)Cn1cc(-c2nc([C@@](C)(c3ccc(-c4cnc(N)nc4)cc3)C3CC3)no2)cn1 [BI 665915]
residual activity [2]: 100% | residual activity [3]: 99% | residual activity [4]: 98% | residual activity [5]: 113% | residual activity [6]: 98% | residual activity [7]: 89% | residual activity [8]: 99.5% | activity at 20 µM [9]: 85% (not active) | residual activity [10]: 91% | residual activity (Caspase-3 (Homo sapiens)): 98% | residual activity [11]: 99% | residual activity [12]: 98.5% | residual activity [13]: 99.5% | residual activity [14]: 90% | residual activity [15]: 93% | residual activity [16]: 93% | residual activity [17]: 86% | residual activity [18]: 86% | residual activity [19]: 99% | residual activity [20]: 98%
